{"source": "patent US8784910B2", "about": "“Antimicrobial compositions” (Lonza Inc., priority 2002, dated 2014)", "key": {"fungi": {"tested_on": "fungi", "assay": "Fungal plate count of preserved GMS cream (Example 6)", "assay_type": "cell-based", "experimental": "Each cream sample in Table 5 below was tested by the procedure described in Example 1. A glyceryl monostearate (GMS) cream as described in Table 3 below was prepared as follows. The polyoxyethylene glyceryl monostearate, glyceryl monostearate, cetearyl alcohol, and myristyl propionate were mixed and heated to 60 EC in a first container. The glycerin and sterile deionized water were mixed and heated to 60 EC in a second container. The solution in the first container was poured into the second container. The second container was maintained at 60 EC for 10 minutes. The solution in the second container was allowed to cool. The pH of the solution was adjusted to pH 7 with sodium hydroxide to yield the GMS cream. The cream samples shown in Table 7 below were prepared by mixing the appropriate amounts of the preservatives and the GMS cream and heating the mixture to 50 EC for 10-15 minutes."}, "[1]": {"tested_on": "Candida albicans and Aspergillus niger", "assay": "Mixed fungal challenge of preserved anionic protein shampoo (Example 5)", "assay_type": "cell-based", "experimental": "Each anionic shampoo sample in Table 4 below was tested as follows. A standard mixed […] solution was prepared according to the following procedure. 2 agar […] of Candida albicans and 4 agar […] of Aspergillus niger were separately incubated at about 25 EC for about 48 hours and 7 days, respectively. Each slant was washed with 3 mL of sterile 0.85% saline solution, collected and macerated in a tissue grinder. Sufficient amounts of 0.85% saline solution were added to each slant to obtain a visual count under a microscope with a Neubauer Hemocytometer of each innoculum of C. albicans and A. niger. Equal volumes of each standardized innoculum of C. albicans and A. niger were mixed together to form the standardized mixed fungal solution. 40 g of each shampoo sample was inoculated with 0.4 mL of the standardized mixed fungal solution and mixed. 1 g of the mixture was added to a sterile 20×150 mm screw cap test tube. 9 mL of sterile D/E neutralizer broth was added to the test tube and mixed to form a 10^-1 dilution. Serial dilutions were prepared through to a 10^-6 dilution with phosphate buffered water. The serial dilutions were plated onto Sabourand dextrose agar and incubated 5 days at about 25 EC. […] The anionic protein shampoo composition is described in Example 4. The shampoo samples were prepared by mixing the appropriate amounts of the preservatives and the anionic protein shampoo composition and heating the mixture to about 50 EC for about 15 minutes."}}, "data": [{"smiles": "O=CC=Cc1ccccc1", "note": "[Cinnamaldehyde, cinnamaldehyde]", "values": [{"measurement": "Fungal Plate Count Day 0", "setting": "fungi; 0.10% in GMS cream", "result": "1.0 × 10^5 cfu/g"}, {"measurement": "Fungal Plate Count Day 7", "setting": "fungi; 0.10% in GMS cream", "result": "<10", "unit": "cfu/g"}, {"measurement": "Fungal Plate Count Day 14", "setting": "fungi; 0.10% in GMS cream", "result": "<10", "unit": "cfu/g"}, {"measurement": "Fungal Plate Count Day 0", "setting": "fungi; 0.25% in GMS cream", "result": "1.0 × 10^5 cfu/g"}, {"measurement": "Fungal Plate Count Day 7", "setting": "fungi; 0.25% in GMS cream", "result": "<10", "unit": "cfu/g"}, {"measurement": "Fungal Plate Count Day 14", "setting": "fungi; 0.25% in GMS cream", "result": "<10", "unit": "cfu/g"}, {"measurement": "Fungal Plate Count Day 0", "setting": "[1]; 0.05% in shampoo", "result": "1.0 × 10^5 cfu/g"}, {"measurement": "Fungal Plate Count Day 7", "setting": "[1]; 0.05% in shampoo", "result": "8.0 × 10^3 cfu/g"}, {"measurement": "Fungal Plate Count Day 14", "setting": "[1]; 0.05% in shampoo", "result": "<10", "unit": "cfu/g"}, {"measurement": "Fungal Plate Count Day 0", "setting": "[1]; 0.10% in shampoo", "result": "1.0 × 10^5 cfu/g"}, {"measurement": "Fungal Plate Count Day 7", "setting": "[1]; 0.10% in shampoo", "result": "3.0 × 10^1 cfu/g"}, {"measurement": "Fungal Plate Count Day 14", "setting": "[1]; 0.10% in shampoo", "result": "<10", "unit": "cfu/g"}, {"measurement": "Fungal Plate Count Day 0", "setting": "[1]; 0.20 in shampoo", "result": "1.0 × 10^5 cfu/g"}, {"measurement": "Fungal Plate Count Day 7", "setting": "[1]; 0.20 in shampoo", "result": "<10", "unit": "cfu/g"}, {"measurement": "Fungal Plate Count Day 14", "setting": "[1]; 0.20 in shampoo", "result": "<10", "unit": "cfu/g"}]}]}
